Laboratory results published in patent US4172198A, “7-(N-substituted-2-phenylglycinamido)-3-sub stituted-3-cephem-4-carboxylic acid compounds and preparation thereof” (Fujisawa Pharmaceutical Co., Ltd., priority 1976, dated 1979).
In brackets after ≈: the same amount, converted by molar mass. Where two headings read alike, the source gives them in different places.

Columns and labels:
Experiment in all cases: minimal inhibitory concentration (MIC) by two-fold agar-plate dilution method
Type in all cases: cell-based
Ps. Aeruginosa 721 = conditions: Pseudomonas aeruginosa, 10^6 viable cells per ml, HI-agar, 37° C., 20 hours
Method: (§1) For the purpose of illustrating of usefulness of the object compound(1) of this invention, the following minimal inhibitory concentrations of some representative compounds against some test strains will be shown.
(§2) The minimal inhibitory concentration (MIC) was determined by the two-fold agar-plate dilution method as described below.
(§3) One loopful of an overnight culture of each test strain in Trypticase-soy broth was streaked on heart infusion agar (HI-agar) containing graded concentrations of representative antibiotic, and the MICs were expressed in terms of μg/ml. after incubation at 37° C. for 20 hours.

B. Subtilis ATCC-6633 = conditions: Bacillus subtilis, ATCC6633, 10^8 viable cells per ml, HI-agar, 37° C., 20 hours
Method: as §2, §3

Sal. Enteritidis = conditions: Salmonella enterica, 10^8 viable cells per ml, HI-agar, 37° C., 20 hours
Method: as §2, §3

Staph. Aureus 209-P = conditions: Staphylococcus aureus, 10^8 viable cells per ml, HI-agar, 37° C., 20 hours
Method: as §2, §3

Ps. Aeruginosa = conditions: Pseudomonas aeruginosa
Method: as §2, §3

Sh flexneri 2a = conditions: 20 h
Method: as §1, §2, §3

[1] = Sal. Enteritidis, first part of table
[2] = ENTERITIDIS, Sal. Enteritides, second part of table
[3] = Ps. Aeruginosa, 10^6 viable cells per ml, HI-agar, 37° C., 20 hours, read-out: MIC

| Compound | MIC (Ps. Aeruginosa 721) [µg/mL] | MIC (Sh flexneri 2a) [µg/mL] | MIC (Sal. Enteritidis; [2]) [µg/mL] | MIC (Ps. Aeruginosa; [3]) [µg/mL] | further results |
| --- | --- | --- | --- | --- | --- |
| Cn1nnnc1SCC1=C(C(=O)O)N2C(=O)C(NC(=O)[C@H](NC(=O)c3nonc3O)c3ccccc3)[C@H]2SC1 (stereo partly drawn) [Example 1-1, 7-[D-2-(4-hydroxy-3-furazancarboxamido)-2-phenylacetamido]-3-(1-methyl-1H-tetrazol-5-ylthiomethyl)-3-cephem-4-carboxylic acid] | 0.39 (≈ 0.68 µM) |  |  |  |  |
| Cn1nnnc1SCC1=C(C(=O)O)N2C(=O)C(NC(=O)[C@H](NC(=O)c3cnc4ccccn4c3=O)c3ccccc3)C2SC1 (stereo partly drawn) [Example 1-6, 7-[D-2-(4-oxo-4H-pyrido[1,2-a]pyrimidine-3-carboxamido)-2-phenylacetamide]-3-(1-methyl-1H-tetrazol-5-ylthiomethyl)-3-cephem-4-carboxylic acid] | 1.56 (≈ 2.46 µM) |  |  |  |  |
| Cn1nnnc1SCC1=C(C(=O)O)N2C(=O)C(NC(=O)[C@H](NC(=O)N3CCOC3=O)c3ccccc3)[C@H]2SC1 (stereo partly drawn) [Example 1-10, 7-[D-2-(2-oxo-3-oxazolidinecarboxamido)-2-phenylacetamido]-3-(1-methyl-1H-tetrazol-5-ylthiomethyl)-3-cephem-4-carboxylic acid] | 0.39 (≈ 0.679 µM) |  |  |  | MIC (B. Subtilis ATCC-6633): 0.2 µg/mL (≈ 0.348 µM); MIC (Sal. Enteritidis; [1]): 0.78 µg/mL (≈ 1.36 µM); MIC (Staph. Aureus 209-P): 0.78 µg/mL (≈ 1.36 µM) |
| Cn1nnnc1SCC1=C(C(=O)O)N2C(=O)C(NC(=O)[C@H](NC(=O)Cc3cc(=O)[nH]c(=N)[nH]3)c3ccccc3)C2SC1 (some centres unmarked) [Example 1-16] | 1.56 (≈ 2.55 µM) |  |  |  |  |
| Cn1nnnc1SCC1=C(C(=O)O)N2C(=O)C(NC(=O)[C@H](NC(=O)c3cc(Cl)n[nH]c3=O)c3ccccc3)[C@H]2SC1 (stereo partly drawn) [Example 1-20, 7-[D-2-(3-oxo-6-chloro-2,3-dihydro-4-pyridazinecarboxamido)-2-phenylacetamido]-3-(1-methyl-1H-tetrazol-5-ylthiomethyl)-3-cephem-4-carboxylic acid] | 0.78 (≈ 1.26 µM) |  |  |  |  |
| Cc1[nH]cc(OCC(=O)N[C@@H](C(=O)NC2C(=O)N3C(C(=O)[O-])=C(CSc4nnnn4C)CS[C@H]23)c2ccccc2)c(=O)c1Cl.[Na+] (stereo partly drawn) [Example 1-31, sodium 7-{D-2-[2-(4-oxo-5-chloro-6-methyl-1,4-dihydropyridin-3-yloxy)acetamido]-2-phenylacetamido}-3-(1-methyl-1H-tetrazol-5-ylthiomethyl)-3-cephem-4-carboxylate] |  | 0.2 |  |  | MIC (B. Subtilis ATCC-6633): 0.78 µg/mL; MIC (Sal. Enteritidis; [1]): 0.39 µg/mL; MIC (Ps. Aeruginosa; 20 h): 0.78 µg/mL; MIC (Staph. Aureus 209-P): 1.56 µg/mL |
| Cn1nnnc1SCC1=C(C(=O)O)N2C(=O)C(NC(=O)[C@H](NC(=O)COc3c[nH]c(CO)c(Cl)c3=O)c3ccccc3)[C@H]2SC1 (stereo partly drawn) [Example 1-34, 7-{D-2-[2-(4-oxo-5-chloro-6-hydroxymethyl-1,4-dihydropyridin-3-yloxy)-acetamido]-2-phenylacetamido}-3-(1-methyl-1H-tetrazol-5-ylthiomethyl)-3-cephem-4-carboxylic acid] |  | 0.2 (≈ 0.295 µM) | 0.2 (≈ 0.295 µM) | 0.78 (≈ 1.15 µM) |  |
| Cn1nnnc1SCC1=C(C(=O)O)N2C(=O)C(NC(=O)[C@H](NC(=O)COc3c[nH]c(CCl)cc3=O)c3ccccc3)C2SC1 (stereo partly drawn) [Example 1-35, 7-{D-2-[2-(4-oxo-6-chloromethyl-1,4-dihydropyridin-3-yloxy)acetamido]-2-penylacetamido}-3-(1-methyl-1H-tetrazol-5-ylthiomethyl)-3-cephem-4-carboxylicacid] |  | 0.39 (≈ 0.59 µM) | 0.39 (≈ 0.59 µM) | 0.78 (≈ 1.18 µM) |  |
| Cc1cc(=O)c(OCC(=O)N[C@@H](C(=O)NC2C(=O)N3C(C(=O)O)=C(CSc4nnnn4C)CSC23)c2ccccc2)c[nH]1 (stereo partly drawn) [Example 1-36, 7-{D-2-[2-(4-oxo-6-methyl-1,4-dihydropyridin-3-yloxy)acetamido]-2-phenylacetamido}-3-(1-methyl-1H-tetrazol-5-ylthiomethyl)-3-cephem-4-carboxylic acidm] |  | 0.39 (≈ 0.622 µM) | 0.78 (≈ 1.24 µM) | 1.56 (≈ 2.49 µM) |  |
| Cc1[nH]cc(OCC(=O)N[C@@H](C(=O)NC2C(=O)N3C(C(=O)O)=C(CSc4nnnn4C)CSC23)c2ccc(O)cc2)c(=O)c1Cl (stereo partly drawn) [Example 1-37, 7-{D-2-[2-(4-oxo-5-chloro-6-methyl-1,4-dihydropyridin-3-yloxy)acetamido]-2-(4-hydroxy)phenylacetamido} -3-(1-methyl-1H-tetrazol-5-ylthiomethyl)-3-cephem-4-carboxylic acid] |  | 0.1 (≈ 0.148 µM) | 0.05 (≈ 0.0738 µM) | 0.78 (≈ 1.15 µM) |  |
| Cn1nnnc1SCC1=C(C(=O)O)N2C(=O)C(NC(=O)[C@H](NC(=O)N3CCOC3=O)c3ccc(O)cc3)[C@H]2SC1 (stereo partly drawn) [Example 2-1, 7-[D-2-(2-oxo-3-oxazolidinecarboxamido)-2-(4-hydroxyphenyl)acetamido]-3-(1-methyl-1H-tetrazol-5-ylthiomethyl)-3-cephem-4-carboxylic acid] | 0.39 (≈ 0.66 µM) |  |  |  |  |
